Measured values: patent US6242601A, “Heterocyclic sulfamides” (Hoffman-La Roche Inc., priority 1999, dated 2001)

Experiments:
[1] = molecular target: T1, recombinant human ETA receptors (Homo sapiens, UniProt P25101); test: Inhibition of endothelin binding on recombinant human ETA receptors expressed in CHO cells ([125I]ET-1, whole attached cells); parameters: expressed in transfected cells; host or cells: CHO cells; conditions: 35 pM [125I]ET-1, 2 h, 22° C.
T1 sequence (P25101 21-427): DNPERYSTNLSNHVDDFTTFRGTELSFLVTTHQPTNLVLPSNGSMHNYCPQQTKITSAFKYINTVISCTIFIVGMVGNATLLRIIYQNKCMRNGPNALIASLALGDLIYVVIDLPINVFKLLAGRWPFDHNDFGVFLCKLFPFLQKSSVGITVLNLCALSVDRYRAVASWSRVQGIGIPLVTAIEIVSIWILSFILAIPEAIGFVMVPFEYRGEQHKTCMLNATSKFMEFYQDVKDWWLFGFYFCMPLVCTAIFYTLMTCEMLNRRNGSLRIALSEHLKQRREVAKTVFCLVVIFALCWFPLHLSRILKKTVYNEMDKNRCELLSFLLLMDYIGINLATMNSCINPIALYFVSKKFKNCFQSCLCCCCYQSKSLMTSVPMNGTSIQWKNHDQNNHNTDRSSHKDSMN
Protocol: II. […] Cell culture. CHO cells, expressing recombinant human ETA receptor are grown in Minimal Essential Alpha Medium (Gibco Laboratories, Paisley, Scotland) supplemented with 0.1 μM methotrexate, 5% dialyzed fetal calf serum, 100 U/ml of penicillin and 100 μg/ml of streptomycin. Binding assays with whole attached cells are performed in 500 μl Dulbecco's Eagle medium (DMEM) containing 2 mg/ml bovine serum albumin and 25 mM Hepes. After incubation (2 h, 22° C.) in the presence of 35 pM [^125 I]ET-1 and increasing concentrations of various antagonists, the cells are extensively washed and finally solubilized in 1% (w/v) SDS, 0.5 M NaOH and 100 mM EDTA. Each assay is performed three times in triplicates and non specific binding is assessed in the presence of 100 nM unlabelled ET-1. Specific binding is defined as the difference between total binding and non specific binding. IC50 values are determined after logit/log transformation of the binding data.

isolated rat aorta rings = molecular target: T2, isolated rat aorta rings (Rattus norvegicus, UniProt P26684); test: Inhibition of endothelin-induced contractions in isolated rat aorta rings; parameters: species or system adult Wistar-Kyoto rats; conditions: rat aorta rings without endothelium, 37° C.; endothelin-1 cumulative; from dose ratio; read-out: pA2 (converted)
T2 construct: Rings with a length of 5 mm were cut out from the thorax aorta of adult Wistar-Kyoto rats; from tissue; host or cells: thoracic aorta of adult Wistar-Kyoto rats, endothelium removed
T2 sequence (P26684 21-426): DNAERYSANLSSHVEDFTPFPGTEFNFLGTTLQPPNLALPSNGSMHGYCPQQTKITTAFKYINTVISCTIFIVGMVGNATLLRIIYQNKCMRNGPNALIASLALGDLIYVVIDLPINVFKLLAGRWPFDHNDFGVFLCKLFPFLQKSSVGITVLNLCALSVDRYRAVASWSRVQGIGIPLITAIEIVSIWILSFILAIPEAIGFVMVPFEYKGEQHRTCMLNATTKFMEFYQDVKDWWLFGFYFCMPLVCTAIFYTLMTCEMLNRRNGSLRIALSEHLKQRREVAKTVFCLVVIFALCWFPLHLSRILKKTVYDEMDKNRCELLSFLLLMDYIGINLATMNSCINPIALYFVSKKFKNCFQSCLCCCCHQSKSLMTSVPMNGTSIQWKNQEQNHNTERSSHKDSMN
Protocol: Rings with a length of 5 mm were cut out from the thorax aorta of adult Wistar-Kyoto rats. The endothelium was removed by lightly rubbing the internal surface. Each ring was immersed at 37° C. in 10 ml of Krebs-Henseleit solution in an isolated bath while gassing with 95% O2 and 5% CO2. The isometric stretching of the rings was measured. The rings were stretched to a pre-tension of 3 g.
The corresponding pA2 value, which is a measure of the activity of the test compound, was calculated using a computer programme according to the following equation from the "dose ratio" DR for each individual dosage-activity curve.
pA2 =log(DR-1)-log(antagonist-concentration)

[2] = Pharmacokinetics of the endothelin receptor antagonists after oral gavage in rats; type: in vivo; conditions: rat, plasma, 5 mg/kg in DMSO, Wistar rats, bioassay; for AUC: read-out: Area under the plasma concentration time curve; for Cmax: read-out: Peak concentration in rat plasma
Protocol: IV. […] The test compounds were dissolved in DMSO at a concentration of 5 mg/mL and administered orally by gavage at a dose of 1 mL/kg body weight corresponding to 5 mg/kg body weight. Two rats were administered per test compound. Blood samples were collected from the retro-orbital sinus at 1 and 5 h post dose in one rat, and at 3 and 7 h post dose in the other rat. In addition a terminal 24 h blood sample was collected from both rats by heart puncture. Blood was collected on EDTA-NaF. Plasma was derived by centrifugation at 2000 g at +4° C. for 15 min. Plasma samples were assayed for active drug related material with a bioassay, based on the binding competition of tested compounds and ^125 I ET-1 on recombinant ETA receptors. Quantitation of plasma samples was by comparison to a calibration curve build up from control rat plasma spiked with known concentrations of the test compounds.

| IC50 [1] | Kb (isolated rat aorta rings) | AUC [2] | Cmax [2] | Compound |
| --- | --- | --- | --- | --- |
| ≤ 10 nM | ≤ 6.31 nM | – | – | CCOC(=O)c1cc(-c2nc(NS(=O)(=O)c3ccc(C)cn3)c(Oc3ccccc3OC)c(OC)n2)ccn1 [Example 23, 4-[4-methoxy-5-(2-methoxy-phenoxy)-6-(5-methyl-pyridine-2-sulfonylamino)-pyrimidin-2-yl]-pyridine-2-carboxylic acid ethyl ester] |
| – | ≤ 6.31 nM | ≥ 10 µg·h/mL | ≥ 1.5 µg/mL | COc1ccccc1Oc1c(NS(=O)(=O)c2ccc(C(C)C)cn2)nc(-c2ccnc(C(N)=O)c2)nc1OC [Example 42, 4-[4-(5-isopropyl-pyridine-2-sulfonylamino)-6-methoxy-5-(2-methoxy-phenoxy)-pyrimidin-2-yl]-pyridine-2-carboxylic acid amide] |
| ≤ 10 nM | ≤ 6.31 nM | – | – | COc1ccccc1Oc1c(NS(=O)(=O)c2ccc(C)cn2)nc(-c2ccnc(C(=O)O)c2)nc1OC [Example 21, 4-[4-methoxy-5-(2-methoxy-phenoxy)-6-(5-methyl-pyridine-2-sulfonylamino)-pyrimidin-2-yl]-pyridine-2-carboxylic acid] |
| – | ≤ 6.31 nM | ≥ 10 µg·h/mL | ≥ 1.5 µg/mL | COc1ccccc1Oc1c(NS(=O)(=O)c2ccc(C)cn2)nc(-c2ccnc(-c3noc(C)n3)c2)nc1OC [Example 35, 5-methyl-pyridine-2-sulfonic acid {6-methoxy-5-(2-methoxy-phenoxy)-2-[2-(5-methyl-[1,2,4]oxadiazol-3-yl)-pyridin-4-yl]-pyrimidin-4-yl}-amide] |
| ≤ 10 nM | ≤ 6.31 nM | – | – | COc1ccccc1Oc1c(NS(=O)(=O)c2ccc(C(C)C)cn2)nc(-c2ccnc(C(=N)NO)c2)nc1OC [Example 55, N-hydroxy-4-[4-(5-isopropyl-pyridine-2-sulfonylamino)-6-methoxy-5-(2-methoxy-phenoxy)-pyrimidin-2-yl]-pyridine-2-carboxamidine] |
| ≤ 10 nM | ≤ 6.31 nM | ≥ 10 µg·h/mL | ≥ 1.5 µg/mL | COc1ccccc1Oc1c(NS(=O)(=O)c2ccc(C)cn2)nc(-c2cccc(OCCO)c2)nc1OC [Example 7, 5-methyl-pyridine-2-sulfonic acid [2-[3-(2-hydroxy-ethoxy)-phenyl]-6-methoxy-5-(2-methoxy-phenoxy)-pyrimidin-4-yl]-amide] |
| ≤ 10 nM | ≤ 6.31 nM | – | – | COc1ccccc1Oc1c(NS(=O)(=O)c2ccc(C)cn2)nc(-c2cccc(O)c2)nc1OC [Example 1, 5-methyl-pyridine-2-sulfonic acid [2-(3-hydroxy-phenyl)-6-methoxy-5-(2-methoxy-phenoxy)-pyrimidin-4-yl]-amide] |
